# Measurements published in patent US11466013B2 (Betta Pharmaceuticals Co., LTD, priority 2018, dated 2022).
# Columns and labels:
# ERK1 = ERK1 (Homo sapiens, UniProt P27361); experiment: Kinase assay (Caliper, FAM-labeled peptide), ERK1; type: biochemical
# Description: (§1) The compound was diluted to the desired concentration with DMSO, transferred 100 μL to a 96-well plate, and performed a gradient dilution 10 μL of compound from each well was taken and mixed with 90 μL of kinase buffer, and then transferred 5 μL from each well to a 384-well plate. Kinase and FAM-labeled peptide and ATP were added to 1× kinase alkaline buffer to obtain 2.5× enzyme solution and 2.5× peptide solution, 10 μL of 2.5× enzyme solution was added to the 384-well assay plate. After incubating for 10 minutes at room temperature, 10 μL of 2.5× peptide solution was added to the 384-well plate. After reacting for a specific time at […], 25 μL of termination buffer was added to stop reaction. After reading the collected data on Caliper, the data was converted to inhibition percentage. Inhibition percentage=(maximum value−conversion value)/(maximum value−minimum value)*100.
# (§2) The “maximum” is the DMSO control, the “minimum” indicates the low control.
# (§3) Graphpad Prism software was used to perform curve fitting and obtain IC50 value.
# ERK2 = ERK2 (Homo sapiens, UniProt P28482); experiment: Kinase assay (Caliper, FAM-labeled peptide), ERK2; type: biochemical
# Description: as §1, §2, §3
# Sequence of ERK2 (P28482 whole entry): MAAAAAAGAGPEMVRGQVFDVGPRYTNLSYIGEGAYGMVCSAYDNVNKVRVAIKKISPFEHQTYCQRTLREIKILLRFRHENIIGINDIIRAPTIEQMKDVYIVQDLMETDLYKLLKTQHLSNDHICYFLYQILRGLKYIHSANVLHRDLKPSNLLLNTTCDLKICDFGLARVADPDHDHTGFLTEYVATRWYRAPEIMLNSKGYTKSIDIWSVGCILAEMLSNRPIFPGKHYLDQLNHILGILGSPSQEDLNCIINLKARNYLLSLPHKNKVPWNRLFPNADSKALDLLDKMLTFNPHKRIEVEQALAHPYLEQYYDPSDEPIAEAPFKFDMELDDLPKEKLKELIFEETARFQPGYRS
# Sequence of ERK1 (P27361 whole entry): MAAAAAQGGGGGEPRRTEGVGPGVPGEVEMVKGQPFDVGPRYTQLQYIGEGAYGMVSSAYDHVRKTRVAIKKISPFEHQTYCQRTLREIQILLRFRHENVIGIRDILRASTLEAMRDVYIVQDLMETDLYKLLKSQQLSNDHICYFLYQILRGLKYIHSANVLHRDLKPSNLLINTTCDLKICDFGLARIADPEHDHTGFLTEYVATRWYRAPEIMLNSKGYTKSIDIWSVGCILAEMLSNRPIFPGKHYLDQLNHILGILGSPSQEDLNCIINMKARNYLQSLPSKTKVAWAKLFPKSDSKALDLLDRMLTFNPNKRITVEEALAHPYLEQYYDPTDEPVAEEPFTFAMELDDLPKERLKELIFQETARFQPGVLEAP
IC50 (ERK1) [nM],IC50 (ERK2) [nM],Structure (SMILES)
0.9,0.4,"Cc1cnc(Nc2cccc(C)c2C)nc1-c1cc2n(c1)CCN(Cc1cc(F)ccc1CO)C2=O [Example 136, 7-(2-((2,3-dimethylphenyl)amino)-5-methylpyrimidin-4-yl)-2-(5-fluoro-2-(hydroxymethyl)benzyl)-3,4-dihydropyrrolo[1,2-a] pyrazine-1(2H)-one]"
0.95,0.64,"COCC1(CO)CN(Cc2cc(F)ccc2CO)C(=O)c2cc(-c3cc(NC(C)C)ncc3Cl)cn2C1 (stereo not shown) [Example 56, 8-(5-chloro-2-(isopropylamino)pyridin-4-yl)-2-(5-fluoro-2-(hydroxymethyl)benzyl)-4-(hydroxymethyl)-4-(methoxymethyl)-2,3,4,5-4,5-tetrahydro-1h-pyrrolo [1,2-a][1,4]diazepine-1-one]"
0.79,0.98,"O=C1c2cc(-c3cc(NCC(F)(F)F)ncc3Cl)cn2CCN1Cc1cc(F)ccc1CO [Example 124, 7-(5-chloro-2-((2,2,2-trifluoroethyl)amino)pyridine-4-yl)-2-(5-fluoro-2-(hydroxymethyl)benzyl)-3,4-dihydropyrrolo[1,2-a] pyrazine-1(2H)-one]"
0.3,0.6,"CC(C)Nc1cc(-c2cc3n(c2)CCN(Cc2cc(F)c(F)cc2CO)C3=O)c(Cl)cn1 [Example 19, 7-(5-chloro-2-(isopropylamino)pyridine-4-yl)-2-(4,5-difluoro-2-(hydroxymethyl)benzyl)-3,4-dihydropyrrolo[1,2-a]pyrazine-1(2H)-one]"
1.9,1.7,"Cc1cnc(Nc2ccc(OC(C)C)nc2)nc1-c1cc2n(c1)CCN(Cc1cc(F)ccc1CO)C2=O [Example 159, 2-(5-fluoro-2-(hydroxymethyl)benzyl)-7-(2-((6-isopropoxypyridin-3-yl)amino) 5-methylpyrimidin-4-yl)-3,4-dihydropyrrolo[1,2-a] pyrazine-1(2H)-one]"
2.5,1.6,"CC(C)Nc1cc(-c2cc3n(c2)CC(CO)CN(Cc2cc(F)ccc2CO)C3=O)c(Cl)cn1 (stereo not shown) [Example 42, 8-(5-chloro-2-(isopropylamino)pyridin-4-yl)-2-(5-fluoro-2-(hydroxymethyl)benzyl)-4-(hydroxymethyl)-2,3,4,5-tetrahydro-1H-pyrrolo[1,2-a][1,4]diazepine-1-one]"
0.87,1.5,"COC[C@H]1Cn2cc(-c3cc(NC4CCOC(C)(C)C4)ncc3Cl)cc2C(=O)N1Cc1cc(F)ccc1CO (stereo partly drawn) [Example 78, (3R)-7-(5-chloro-2-((2,2-dimethyltetrahydro-2h-pyran-4-yl)amino)pyridine-4-yl)-2-(5-fluoro-2-(hydroxymethyl)benzyl)-3-(methoxymethyl)-3,4-dihydropyrrolo[1,2-a] pyrazine-1(2H)-one]"
1.6,1.2,"COC[C@H]1Cn2cc(-c3ccnc(NC4CCOCC4)c3)cc2C(=O)N1Cc1cc(F)ccc1CO [Example 67, (R)-2-(5-fluoro-2-(hydroxymethyl)benzyl)-3-(methoxymethyl)-7-(2-((tetrahydro-2h-pyran-4-yl)amino)pyridine-4-yl)-3,4-dihydropyrrolo [1,2-a]pyrazine-1(2H)-one]"
1.5,1.6,"COC[C@H]1Cn2cc(-c3cc(NC4CC(F)(F)C4)ncc3Cl)cc2C(=O)N1Cc1cc(F)ccc1CO [Example 63, (R)-7-(5-chloro-2-((3,3-difluorocyclobutyl)amino)pyridine-4-yl)-2-(5-fluoro-2-(hydroxymethyl)benzyl)-3-(methoxymethyl)-3,4-dihydropyrrolo[1,2-a] pyrazine-1(2H)-one]"
1.3,0.84,CC(C)Nc1cc(-c2cc3n(c2)CC2(CN(C)C2)CN(Cc2ccccc2CO)C3=O)c(Cl)cn1 [Example 25]
0.38,0.41,"COC[C@H]1Cn2cc(-c3cc(NC4CCOC4)ncc3Cl)cc2C(=O)N1Cc1cc(F)ccc1CO (stereo partly drawn) [Example 61, (3R)-7-(5-chloro-2-((tetrahydrofuran-3-yl)amino)pyridine-4-yl)-2-(5-fluoro-2-(hydroxymethyl)benzyl)-3-(methoxymethyl)-3,4-dihydropyrrolo[1,2-a] pyrazine-1(2H)-one]"
3.1,0.9,"COCC1Cn2cc(-c3cc(NC4CCN(C(C)C)CC4)ncc3Cl)cc2C(=O)N1Cc1cc(F)ccc1CO (stereo not shown) [Example 73, 7-(5-chloro-2-((1-isopropylpiperidin-4-yl)amino)pyridine-4-yl)-2-(5-fluoro-2-(hydroxymethyl)benzyl)-3-(methoxymethyl)-3,4-dihydropyrrolo[1,2-a] pyrazine-1(2H)-one]"
0.93,0.87,"Cc1cnc(Nc2cccc3c2cnn3C)nc1-c1cc2n(c1)CCN(Cc1cc(F)ccc1CO)C2=O [Example 141, 2-(5-fluoro-2-(hydroxymethyl)benzyl)-7-(5-methyl-2-((1-methyl-1h-indazole-4-yl)amino)pyrimidin-4-yl)-3,4-dihydropyrrolo[1,2-a] pyrazine-1(2H)-one]"
0.7,0.6,"CC(C)Nc1cc(-c2cc3n(c2)CCN(Cc2ccccc2CO)C3=O)c(Cl)cn1 [Example 14, 7-(5-chloro-2-(isopropylamino)pyridin-4-yl)-2-(2-(hydroxymethyl)benzyl)-3,4-dihydropyrrolo[1,2-a] pyrazine-1(2H)-one]"
0.9,0.8,Cc1ccccc1Nc1ncc(C)c(-c2cc3n(c2)CCN(Cc2cc(F)ccc2CO)C3=O)n1 [Example 49]
0.3,0.32,"O=C1c2cc(-c3cc(NC4CCOC4)ncc3Cl)cn2CCN1Cc1cc(F)ccc1CO (stereo not shown) [Example 31, 7-(5-Chloro-2-((tetrahydrofuran-3-yl)amino)pyridin-4-yl)-2-(5-fluoro-2-(hydroxymethyl)benzyl)-3,4-dihydropyrrolo[1,2-a]pyrazine-1(2H)-one]"
0.31,0.2,"O=C1c2cc(-c3cc(NC4COC4)ncc3Cl)cn2CCN1Cc1cc(F)ccc1CO [Example 30, 7-(5-Chloro-2-(oxetan-3-ylamino)pyridin-4-yl)-2-(5-fluoro-2-(hydroxymethyl)benzyl)-3,4-dihydropyrrolo[1,2-a]pyrazine-1(2H)-one]"
0.44,0.27,"Cc1cnc(NC2COC2)nc1-c1cc2n(c1)CCN(Cc1cc(F)ccc1CO)C2=O [Example 32, 2-(5-Fluoro-2-(hydroxymethyl)benzyl)-7-(5-methyl-2-(oxetan-3-ylamino)pyrimidine-4-yl)-3,4-dihydropyrrolo[1,2-a]pyrazine-1(2H)-one]"
0.6,0.7,"COCC1Cn2cc(-c3cc(NC4CCN(C(C)=O)CC4)ncc3Cl)cc2C(=O)N1Cc1cc(F)ccc1CO (stereo not shown) [Example 110, 7-(2-((1-acetylpiperidin-4-yl)amino)-5-chloropyridine-4-yl)-2-(5-fluoro-2-(hydroxymethyl)benzyl)-3-(methoxymethyl)-3,4-dihydropyrrolo[1,2-a] pyrazine-1(2H)-one]"
0.7,0.7,"Cc1cnc(Nc2cccc3c2OCO3)nc1-c1cc2n(c1)CCN(Cc1cc(F)ccc1CO)C2=O [Example 133, 7-(2-(benzo[D][1,3]dioxocyclopentene-4-ylamino)-5-methylpyrimidin-4-yl)-2-(5-fluoro-2-(hydroxymethyl)benzyl)-3,4-dihydropyrrolo[1,2-a] pyrazine-1(2H)-one]"
